# Source: patent US20220098203A1 (priority 2018, published 2022)
# Legend:
# MAT2A homodimer = molecular target: T1, MAT2A homodimer (Homo sapiens, UniProt P31153); experiment: MAT2A biochemical assay (liberated phosphate, PiColorLock Gold); settings: Table 5a; MAT2A biochemical assay; read-out: Enzyme Inhibition
# T1 construct: inferred from the Ni sepharose purification and imidazole elution; made in house; host or cells: SF9 insect cells, recombinant baculovirus (Bac to Bac, pFASTBAC1)
# Procedure, shortened: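 Readout is liberated phosphate (PiColorLock Gold), stoichiometric with SAM production, quantified against a potassium phosphate standard curve. Enzyme: recombinant MAT2A homodimer from Sf9, equilibrated 60 min at 25 °C with compound before 60 min reaction with substrate mix containing 500 μM ATP and 400 μM L-methionine.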
# [1] = tested on: SAM in HCT116 MTAP-deleted cells; experiment: Cellular assay of target engagement (SAM), LC-MS/MS; type: cell-based, human; settings: Homo sapiens, HCT-116, Table 5a, 72 h, read-out: Cell 72 h SAM Inhibition (MTAP −/−)
# Procedure, shortened: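 Target engagement was read as intracellular SAM, measured by LC-MS/MS with d3-SAM as internal standard in methanol/acetic acid extracts. These came from MTAP-deleted HCT116 colon carcinoma cells exposed to inhibitor for 72 hrs.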
# HCT116 MTAP-/- = experiment: Inhibition of cellular proliferation (Cell Titer Glo), HCT116 MTAP-/-; type: cell-based, human; settings: Homo sapiens, HCT-116, 96 h, Table 5a, 4 days, read-out: 4 Day Relative Growth Inhibition (MTAP −/−)
# Procedure, shortened: (§1)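 After 4 days of compound exposure at 37 °C, starting 24 h after plating, growth of the MTAP-wildtype and MTAP-deleted HCT116 pair was measured as ATP luminescence (CellTiter-Glo). The proliferation index was signal minus no-cell blank, divided by blank-corrected 0.2% DMSO control.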
# HCT116 MTAP+/+ = experiment: Inhibition of cellular proliferation (Cell Titer Glo), HCT116 MTAP+/+; type: cell-based; settings: Homo sapiens, HCT-116, 96 h, Table 5a, 4 days, read-out: 4 Day Relative Growth Inhibition (MTAP +/+)
# Procedure, shortened: as §1
# T1 sequence (P31153 whole entry): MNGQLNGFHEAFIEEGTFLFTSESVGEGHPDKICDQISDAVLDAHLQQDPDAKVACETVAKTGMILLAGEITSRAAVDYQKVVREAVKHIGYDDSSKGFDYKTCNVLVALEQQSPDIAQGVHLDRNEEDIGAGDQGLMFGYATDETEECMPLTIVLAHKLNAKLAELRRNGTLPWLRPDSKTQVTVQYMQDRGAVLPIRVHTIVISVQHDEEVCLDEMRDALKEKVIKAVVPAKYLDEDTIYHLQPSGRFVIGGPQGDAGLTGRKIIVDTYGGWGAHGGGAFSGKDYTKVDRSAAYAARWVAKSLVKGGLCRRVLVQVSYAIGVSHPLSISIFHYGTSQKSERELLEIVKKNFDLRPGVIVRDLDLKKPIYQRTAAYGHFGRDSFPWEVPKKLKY
SMILES,IC50 (MAT2A homodimer),IC50 [1],IC50 (HCT116 MTAP-/-),IC50 (HCT116 MTAP+/+)
"[2H]C([2H])([2H])Oc1ccc(N2C(=O)N(c3ccc4nc(C)n(C)c4c3)Cc3cnc(NCC(F)(F)F)nc32)cc1 [Example 402, 3-(1,2-dimethyl-1H-benzo[d]imidazol-6-yl)-1-(4-(methoxy-d3)phenyl)-7-((2,2,2-trifluoroethyl)amino)-3,4-dihydropyrimido[4,5-d]pyrimidin-2(1H)-one]",< 100 nM,< 100 nM,< 100 nM,100 to 1000 nM
"Cn1cc2cc(N3Cc4ccc(OCC(F)F)nc4N(c4ccc5c(c4)ncn5C)C3=O)ccc2n1 [Example 403, 7-(2,2-difluoroethoxy)-1-(1-methyl-1H-benzo[d]imidazol-5-yl)-3-(2-methyl-2H-indazol-5-yl)-3,4-dihydropyrido[2,3-d]pyrimidin-2(1H)-one]",< 100 nM,< 100 nM,100 to 1000 nM,> 1000 nM
"Cn1cc2cc(N3Cc4ccc(OCC(F)F)nc4N(c4ccc5[nH]cnc5c4)C3=O)ccc2n1 [Example 404, 1-(1H-benzo[d]imidazol-5-yl)-7-(2,2-difluoroethoxy)-3-(2-methyl-2H-indazol-5-yl)-3,4-dihydropyrido[2,3-d]pyrimidin-2(1H)-one]",< 100 nM,100 to 1000 nM,100 to 1000 nM,> 1000 nM
"Cn1cc2cc(N3Cc4ccc(OCC(F)F)nc4N(c4ccc5[nH]ncc5c4)C3=O)ccc2n1 [Example 405, 7-(2,2-difluoroethoxy)-1-(1H-indazol-5-yl)-3-(2-methyl-2H-indazol-5-yl)-3,4-dihydropyrido[2,3-d]pyrimidin-2(1H)-one]",< 100 nM,< 100 nM,100 to 1000 nM,> 1000 nM
"COc1ccc(N2Cc3ccc(NCC(F)(F)F)nc3N(c3ccc(OC(F)F)cc3)C2=O)cc1 [Example 406, 1-(4-(difluoromethoxy)phenyl)-3-(4-methoxyphenyl)-7-((2,2,2-trifluoroethyl)amino)-3,4-dihydropyrido[2,3-d]pyrimidin-2(1H)-one]",< 100 nM,100 to 1000 nM,100 to 1000 nM,> 1000 nM
"COc1ccc(N2Cc3ccc(NCC(F)(F)F)nc3N(c3ccc(Cl)cc3)C2=O)cc1 [Example 407, 1-(4-chlorophenyl)-3-(4-methoxyphenyl)-7-((2,2,2-trifluoroethyl)amino)-3,4-dihydropyrido[2,3-d]pyrimidin-2(1H)-one]",100 to 1000 nM,> 1000 nM,> 1000 nM,> 1000 nM
"O=C1N(c2ccc3ncsc3c2)Cc2ccc(OCC(F)F)nc2N1c1ccc(OC(F)F)cc1 [Example 408, 3-(benzo[d]thiazol-6-yl)-7-(2,2-difluoroethoxy)-1-(4-(difluoromethoxy)phenyl)-3,4-dihydropyrido[2,3-d]pyrimidin-2(1H)-one]",< 100 nM,< 100 nM,100 to 1000 nM,> 1000 nM
"O=C1N(c2ccc3ncsc3c2)Cc2ccc(OCC(F)F)nc2N1c1ccc(Br)cc1 [Example 409, 3-(benzo[d]thiazol-6-yl)-1-(4-bromophenyl)-7-(2,2-difluoroethoxy)-3,4-dihydropyrido[2,3-d]pyrimidin-2(1H)-one]",< 100 nM,< 100 nM,< 100 nM,100 to 1000 nM
"Cn1cc2cc(N3Cc4ccc(OCC(F)F)nc4N(c4ccc5[nH]cc(C#N)c5c4)C3=O)ccc2n1 [Example 410, 5-(7-(2,2-difluoroethoxy)-3-(2-methyl-2H-indazol-5-yl)-2-oxo-3,4-dihydropyrido[2,3-d]pyrimidin-1(2H)-yl)-1H-indole-3-carbonitrile]",< 100 nM,< 100 nM,100 to 1000 nM,> 1000 nM
"Cn1cc2cc(N3Cc4ccc(OCC(F)F)nc4N(c4ccc5oc(N)nc5c4)C3=O)ccc2n1 [Example 411, 1-(2-aminobenzo[d]oxazol-5-yl)-7-(2,2-difluoroethoxy)-3-(2-methyl-2H-indazol-5-yl)-3,4-dihydropyrido[2,3-d]pyrimidin-2(1H)-one]",< 100 nM,< 100 nM,< 100 nM,> 1000 nM
"Cn1cc2cc(N3Cc4ccc(OCC(F)F)nc4N(c4ccc(NC(N)=O)cc4)C3=O)ccc2n1 [Example 412, 1-(4-(7-(2,2-difluoroethoxy)-3-(2-methyl-2H-indazol-5-yl)-2-oxo-3,4-dihydropyrido[2,3-d]pyrimidin-1(2H)-yl)phenyl)urea]",< 100 nM,< 100 nM,< 100 nM,> 1000 nM

# Now from value to molecule:
IC50 (MAT2A homodimer),IC50 [1],IC50 (HCT116 MTAP-/-),IC50 (HCT116 MTAP+/+),SMILES
< 100 nM,< 100 nM,100 to 1000 nM,> 1000 nM,"CCOc1cnc2c(n1)N(c1ccc(Cl)cc1)C(=O)N(c1ccc3nn(C)cc3c1)C2 [Example 413, 1-(4-chlorophenyl)-7-ethoxy-3-(2-methyl-2H-indazol-5-yl)-3,4-dihydropteridin-2(1H)-one]"
< 100 nM,< 100 nM,< 100 nM,> 1000 nM,"Cn1cc2cc(N3Cc4ncc(NCC(F)(F)F)nc4N(c4ccc(OC(F)F)cc4)C3=O)ccc2n1 [Example 414, 1-(4-(difluoromethoxy)phenyl)-3-(2-methyl-2H-indazol-5-yl)-7-((2,2,2-trifluoroethyl)amino)-3,4-dihydropteridin-2(1H)-one]"
< 100 nM,100 to 1000 nM,100 to 1000 nM,100 to 1000 nM,"COc1ccc(N2Cc3ncc(NCC(F)(F)F)nc3N(c3ccc(OC(F)F)cc3)C2=O)cc1 [Example 415, 1-(4-(difluoromethoxy)phenyl)-3-(4-methoxyphenyl)-7-((2,2,2-trifluoroethyl)amino)-3,4-dihydropteridin-2(1H)-one]"
< 100 nM,100 to 1000 nM,100 to 1000 nM,> 1000 nM,"COc1ccc(N2Cc3ncc(NCC(F)(F)F)nc3N(c3ccc(Cl)cc3)C2=O)cc1 [Example 416, 1-(4-chlorophenyl)-3-(4-methoxyphenyl)-7-((2,2,2-trifluoroethyl)amino)-3,4-dihydropteridin-2(1H)-one]"
< 100 nM,< 100 nM,100 to 1000 nM,100 to 1000 nM,"[2H]C([2H])([2H])Oc1ccc(N2C(=O)N(c3ccc4nn(C)cc4c3)Cc3ncc(OCC)nc32)cc1 [Example 417, 7-ethoxy-1-(4-(methoxy-d3)phenyl)-3-(2-methyl-2H-indazol-5-yl)-3,4-dihydropteridin-2(1H)-one]"
< 100 nM,100 to 1000 nM,100 to 1000 nM,100 to 1000 nM,"[2H]C([2H])([2H])Oc1ccc(N2C(=O)N(c3ccc4nn(C)cc4c3)Cc3cnc(NCC)nc32)cc1 [Example 419, 7-(ethylamino)-1-(4-(methoxy-d3)phenyl)-3-(2-methyl-2H-indazol-5-yl)-3,4-dihydropyrimido[4,5-d]pyrimidin-2(1H)-one]"
< 100 nM,< 100 nM,100 to 1000 nM,100 to 1000 nM,"[2H]C([2H])([2H])Oc1ccc(N2C(=O)N(c3ccc4nn(C)cc4c3)Cc3cnc(NCC(F)F)nc32)cc1 [Example 420, 7-((2,2-difluoroethyl)amino)-1-(4-(methoxy-d3)phenyl)-3-(2-methyl-2H-indazol-5-yl)-3,4-dihydropyrimido[4,5-d]pyrimidin-2(1H)-one]"
